Experimental data as given in US20250129088A1, “CEREBLON E3 UBIQUITIN LIGASE INHIBITOR” (Gan & Lee Pharmaceuticals Co., Ltd., priority 2022, published 2025).

Experiments:
[1] = tested on: JeKo-1 cells; experiment: JeKo-1 cell proliferation inhibition, CCK-8; assay type: cell-based; conditions: Homo sapiens, 96 h, JeKo-1, 4 days
Procedure: The complete medium required for JeKo-1 cells is RPMI1640 (ATCC, Product number: 30-2001) basal medium containing 20% fetal bovine serum. The JeKo-1 cells were seeded in a 96-well plate at a density of 10,000 cells/well, and different concentrations of the compounds of the present invention were prepared to treat the cells at the same time. The cells were incubated at a 37° C., 5% CO2 cell culture incubator for 4 days. Cell viability was detected using the CCK-8 kit (Beyotime, Product number: C0040) according to the manufacturer's instructions. According to the inhibition rate, the GraphPad Prism software was used to calculate the IC50 value of each compound for 4 days, and the results are shown in Table 13.

[2] = tested on: Z138 cells; experiment: Z138 cell proliferation inhibition, CCK-8; assay type: cell-based; conditions: Homo sapiens, Z-138, 96 h, Z138, 4 days
Procedure: The complete medium required for Z138 cells is IMDM (ATCC, Product number: 30-2005) basal medium containing 10% horse serum. Z138 cells were seeded in a 96-well plate at a density of 10,000 cells/well, and different concentrations of the compound of the present invention and a positive control sample Ibrutinib (source: Bide Pharmaceuticals) were prepared to treat the cells. The cells were incubated in a 37° C., 5% CO2 cell incubator for 4 days. Cell viability was detected using the CCK-8 kit (Beyotime, Product number: C0040) according to the manufacturer's instructions. According to the inhibition rate, the GraphPad Prism software was used to calculate the IC50 value of each compound for 4 days, and the results are shown in Table 14.

[3] = molecular target: E3 ubiquitin ligase CRBN (Homo sapiens (Human), UniProt Q96SW2); experiment: CRBN binding activity, HTRF competition with Thalidomide-Red (CEREBLON BINDING KIT); conditions: competition with XL665-labelled thalidomide, 3 hours room temperature
Procedure: From this, the binding force of the compounds to the CRBN protein was determined.
CRBN binding activity test kit (CEREBLON BINDING KITS (PE, 64BDCRBNPEG).
The detection is based on homogeneous time-resolved fluorescence (HTRF) technology.
The donor used in this kit was Europium-labeled GST antibody (GST Eu Cryptate Antibody), and the acceptor was thalidomide labeled with XL665 (Thalidomide-Red reagent). The donor binded to the CRBN protein containing the GST tag.
The donor and acceptor were diluted 50 times using the binding buffer from the kit (PROTAC binding buffer 1). The CRBN protein was diluted 45 times. The disclosed compound solution at 8 mM was diluted 10 times with the diluent from the kit (1× diluent), followed by a five-fold gradient dilution, performed 7 times sequentially.
Incubate at room temperature for 3 hours.
The ratio of the emission signals from the acceptor and donor in each individual well is calculated.
The coefficient of variation (CV)=standard deviation (SD)/mean Ratio*100
Using GraphPad Prism, IC50 values were calculated based on compound concentration, Ratio and coefficient of variation.

[4] = tested on: NCI-H358 cells; experiment: NCI-H358 cell proliferation inhibition, CCK-8; assay type: cell-based; conditions: Homo sapiens, 96 h, NCI-H358, 4 days
Procedure: The complete medium required for NCI-H358 cells is RPMI1640 (ATCC, Product number: 30-2001) basal medium containing 10% fetal bovine serum. NCI-H358 cells were seeded in a 96-well plate at a density of 2,800 cells/well, and the next day, different concentrations of the compounds of the present invention were prepared to treat the cells, and the cells were treated for 4 days in a 37° C., 5% CO2 cell culture incubator. Cell viability was detected using a CCK-8 kit (Beyotime, Product number: C0040) according to the manufacturer's instructions. According to the inhibition rate, the GraphPad Prism software was used to calculate the IC50 value of each compound for 4 days, and the results are shown in Table 5.

| Compound | IC50 [1] [µM] | IC50 [2] [µM] | IC50 [3] [µM] | IC50 [4] [µM] |
| --- | --- | --- | --- | --- |
| Nc1ncnc2c1c(-c1ccc(Oc3ccccc3)cc1)nn2[C@@H]1CCCN(CCOCCC(=O)N2CC3(CCc4cc5c(cc4O3)C(=O)N(C3CCC(=O)NC3=O)C5=O)C2)C1 (stereo partly drawn) [PROTAC 33, 1-(3-(2-((R)-3-(4-amino-3-(4-phenoxyphenyl)-1H-pyrazolo[3,4-d]pyrimidin-1-yl)piperidin-1-yl)ethoxy)propionyl)-7′-(2,6-dioxopiperidin-3-yl)-3′,4′-dihydro-6′H-spiro[azetidine-3,2′-pyrano[2,3-f]isoindole]-6′,8′(7′H)-dione] | 63.8 | 34.9 |  |  |
| Nc1ncnc2c1c(-c1ccc(Oc3ccccc3)cc1)nn2[C@@H]1CCCN(CCOCCC(=O)N2CCC3(CCc4cc5c(cc4O3)CN(C3CCC(=O)NC3=O)C5=O)CC2)C1 (stereo partly drawn) [PROTAC 35, 3-(1-(3-(2-((R)-3-(4-amino-3-(4-phenoxyphenyl)-1H-pyrazolo[3,4-d]pyrimidine-1-yl)piperidin-1-yl)ethoxy)propionyl)-6′-oxo-3′,4′,6′,8′-tetrahydro-7′H-spiro[piperidine-4, 2′-pyrano[2,3-f]isoindol]-7′-yl)piperidine-2,6-dione] | 19.1 | 22.6 |  |  |
| O=C1CCC(N2C(=O)c3ccc4c(c3C2=O)C2(CCNCC2)CO4)C(=O)N1 (stereo not drawn) [Compound27, 2-(2,6-dioxopiperidin-3-yl)-2-hydro-1H,7H-spiro[furo[3,2-e]isoindole-8,4′-piperidine]-1,3-dione] |  |  | 36.4 |  |
| COc1cc2ncnc(Nc3ccc(F)c(Cl)c3)c2cc1OCCCN1CCN(CCOCCC(=O)N2CCC3(CC2)COc2cc4c(cc2O3)CN(C2CCC(=O)NC2=O)C4=O)CC1 (stereo not drawn) [PROTAC 18, 3-(1-(3-(2-(4-(3-((4-((3-chloro-4-fluorophenyl)amino)-7-methoxyquinazolin-6-yl)oxy)propyl)piperazin-1-yl)ethoxy)propionyl)-6′-oxo-6′,8′-dihydro-3′H,7′H-spiro[piperidine-4, 2′-[1,4]dioxino[2,3-f]isoindol]-7′-yl)piperidine-2,6-dione] |  |  |  | 42.6 |
| O=C1CCC(N2C(=O)c3cc4c(cc3C2=O)C2(CCNCC2)CO4)C(=O)N1 (stereo not drawn) [Compound17, 6-(2,6-dioxopiperidin-3-yl)-6-hydro-2H, 5H-spiro[[2,3-f]isoindole-3,4′-piperidin]-5,7-dione] |  |  | 15.2 |  |
| COc1cc2ncnc(Nc3ccc(F)c(Cl)c3)c2cc1OCCCN1CCN(CCOCCC(=O)N2CC3(CCc4cc5c(cc4O3)C(=O)N(C3CCC(=O)NC3=O)C5=O)C2)CC1 (stereo not drawn) [PROTAC 23, 1-(3-(2-(4-(3-((4-((3-chloro-4-fluorophenyl)amino)-7-methoxyquinazolin-6-yl)oxy)propyl)piperazin-1-yl)ethoxy)propionyl)-7′-(2,6-dioxopiperidin-3-yl)-3′,4′-dihydro-6′H-spiro[azetidine-3,2′-pyrano[2,3-f]isomdole]-6′,8′(7′H)-dione] |  |  |  | 71.2 |
| O=C1CCC(N2Cc3cc4c(cc3C2=O)CCC2(CNC2)O4)C(=O)N1 (stereo not drawn) [Compound13, 3-(6′-oxo-3′,4′,6′,8′-tetrahydro-7′H-spiro[azetidine-3,2′-pyrano[2,3-f]isoindole]-7′-yl)piperidine-2,6-dione] |  |  | 3.9 |  |
| COc1cc2ncnc(Nc3ccc(F)c(Cl)c3)c2cc1OCCCN1CCN(CCOCCC(=O)N2CCC3(CCc4cc5c(cc4O3)C(=O)N(C3CCC(=O)NC3=O)C5=O)CC2)CC1 (stereo not drawn) [PROTAC 21, 1-(3-(2-(4-(3-((4-((3-chloro-4-fluorophenyl)amino)-7-methoxyquinazolin-6-yl)oxy)propyl)piperazin-1-yl)ethoxy)propionyl)-7′-(2,6-dioxopiperidin-3-yl)-3′,4′-dihydro-6′H-spiro[piperidine-4,2′-pyrano[2,3-f]isoindole]-6′,8′(7′H)-dione] |  |  |  | 23.2 |
| COc1cc2ncnc(Nc3ccc(F)c(Cl)c3)c2cc1OCCCN1CCN(CCOCCC(=O)N2CCC3(CC2)COc2cc4c(cc23)C(=O)N(C2CCC(=O)NC2=O)C4=O)CC1 (stereo not drawn) [PROTAC 24, 1′-(3-(2-(4-(3-((4-((3-chloro-4-fluorophenyl)amino)-7-methoxyquinazolin-6-yl)oxy)propyl)piperazin-1-yl)ethoxy)propionyl)-6-(2,6-dioxopiperidin-3-yl)-6-hydro-2H,5H-spiro[furo[2,3-f]isoindole-3,4′-piperdine]-5,7-dione] |  |  |  | 31.2 |
| O=C1CCC(N2Cc3cc4c(cc3C2=O)OCC2(CCNCC2)O4)C(=O)N1 (stereo not drawn) [Compound16, 3-(6′-oxo-6′,8′-dihydro-3′H,7′H-spiro[piperidine-4,2′-[1,4]dioxino[2,3-f]isoindole]-7′-yl)piperidine-2,6-dione] |  |  | 1.2 |  |
| Nc1ncnc2c1c(-c1ccc(Oc3ccccc3)cc1)nn2[C@@H]1CCCN(CCOCCC(=O)N2CCC3(CC2)COc2cc4c(cc2O3)CN(C2CCC(=O)NC2=O)C4=O)C1 (stereo partly drawn) [PROTAC 37, 3-(1-(3-(2-((R)-3-(4-amino-3-(4-phenoxyphenyl)-1H-pyrazolo[3,4-d]pyrimidine-1-yl)piperidin-1-yl)ethoxy)propionyl)-6′-oxo-6′,8′-dihydro-3′H,7′H-spiro[piperidine-4,2′-[1,4]dioxino[2,3-f]isoindole]-7′-yl)piperidine-2,6-dione] | 32.4 | 36.1 |  |  |
| Nc1ncnc2c1c(-c1ccc(Oc3ccccc3)cc1)nn2[C@@H]1CCCN(CCOCCC(=O)N2CCC3(CCc4cc5c(cc4O3)C(=O)N(C3CCC(=O)NC3=O)C5=O)CC2)C1 (stereo partly drawn) [PROTAC 32, 1-(3-(2-((R)-3-(4-amino-3-(4-phenoxyphenyl)-1H-pyrazolo[3,4-d]pyrimidin-1-yl)piperidin-1-yl)ethoxy)propionyl)-7′-(2,6-dioxopiperidin-3-yl)-3′,4′-dihydro-6′H-spiro[piperidin-4,2′-pyrano[2,3-f]isoindole]-6′,8′(7′H)-dione] | 18.4 | 16 |  |  |
| COc1cc2ncnc(Nc3ccc(F)c(Cl)c3)c2cc1OCCCN1CCN(CCOCCC(=O)N2CCC3(CCc4cc5c(cc4O3)C(=O)N(C3CCC(=O)NC3=O)C5)CC2)CC1 (stereo not drawn) [PROTAC 17, 3-(1-(3-(2-(4-(3-((4-((3-chloro-4-fluorophenyl)amino)-7-methoxyquinazolin-6-yl)oxy)propyl)piperazin-1-yl)ethoxy)propionyl)-8′-oxo-3′,4′,6′,8′-tetrahydro-7′H-spiro[piperidine-4,2′-pyrano[2,3-f]isoindole]-7′-yl)piperidine-2,6-dione] |  |  |  | 16.8 |
| COc1cc2ncnc(Nc3ccc(F)c(Cl)c3)c2cc1OCCCN1CCN(CCOCCC(=O)N2CCC3(CC2)COc2cc4c(cc2C3)C(=O)N(C2CCC(=O)NC2=O)C4=O)CC1 (stereo not drawn) [PROTAC 22, 1-(3-(2-(4-(3-((4-((3-chloro-4-fluorophenyl)amino)-7-methoxyquinazolin-6-yl)oxy)propyl)piperazin-1-yl)ethoxy)propionyl)-7′-(2,6-dioxopiperidin-3-yl)-2′H-spiro[piperidine-4,3′-pyrano[2,3-f]isoindole]-6′,8′(4′H,7′H)-dione] |  |  |  | 52.1 |
| O=C1CCC(N2Cc3cc4c(cc3C2=O)CCC2(CCNCC2)O4)C(=O)N1 (stereo not drawn) [Compound12, 3-(6′-oxo-3′,4′,6′,8′-tetrahydro-7′H-spiro[piperidine-4,2′-pyrano[2,3-f]isoindole]-7′-yl)piperidine-2,6-dione] |  |  | 3 |  |
| Nc1ncnc2c1c(-c1ccc(Oc3ccccc3)cc1)nn2[C@@H]1CCCN(CCOCCC(=O)N2CCC3(CCc4cc5c(cc4O3)C(=O)N(C3CCC(=O)NC3=O)C5)CC2)C1 (stereo partly drawn) [PROTAC 36, 3-(1-(3-(2-((R)-3-(4-amino-3-(4-phenoxyphenyl)-1H-pyrazolo[3,4-d]pyrimidine-1-yl)piperidin-1-yl)ethoxy)propionyl)-8′-oxo-3′,4′,6′,8′-tetrahydro-7′H-spiro[piperidine-4, 2′-pyrano[2,3-f]isoindol]-7′-yl)piperidine-2,6-dione] | 19.2 | 25.4 |  |  |
